# Columns and labels:
# MAGL = target: T1, MAGL (Mus musculus, UniProt O35678); assay: In vitro competitive activity-based protein profiling, mouse MAGL; assay type: biochemical; details: for inhibition at 1 µM: read-out: MAGL % inh. 1 μM (mouse)
# T1 construct: mouse brain membrane fraction or cell lysates for mouse assays; from tissue
# T1 sequence (O35678 1-303): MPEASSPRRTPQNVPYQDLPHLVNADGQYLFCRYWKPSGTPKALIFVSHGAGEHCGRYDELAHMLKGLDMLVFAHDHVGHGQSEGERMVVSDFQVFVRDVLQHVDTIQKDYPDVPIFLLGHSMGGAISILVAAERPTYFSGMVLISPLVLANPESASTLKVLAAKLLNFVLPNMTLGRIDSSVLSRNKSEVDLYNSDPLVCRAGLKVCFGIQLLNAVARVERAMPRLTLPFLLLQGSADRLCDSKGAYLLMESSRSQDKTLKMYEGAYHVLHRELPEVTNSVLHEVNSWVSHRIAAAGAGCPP
# Procedure, shortened: (§1)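 Activity measured as fluorescent gel-band intensity of MAGL and FAAH after SDS-PAGE. Before labelling with FP-Rh or HT-01 (30 min, 37 °C), proteomes at 1.0 mg/mL (mouse brain membrane or lysates; human prefrontal cortex or cell membranes) were exposed to varying inhibitor concentrations for 30 min at 37 °C.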
# FAAH = target: T2, FAAH (Mus musculus, UniProt O08914); assay: In vitro competitive activity-based protein profiling, mouse FAAH; assay type: biochemical; details: for inhibition at 1 µM: read-out: FAAH % inh. 1 μM (mouse)
# T2 construct: mouse brain membrane fraction or cell lysates for mouse assays; from tissue
# T2 sequence (O08914 1-579): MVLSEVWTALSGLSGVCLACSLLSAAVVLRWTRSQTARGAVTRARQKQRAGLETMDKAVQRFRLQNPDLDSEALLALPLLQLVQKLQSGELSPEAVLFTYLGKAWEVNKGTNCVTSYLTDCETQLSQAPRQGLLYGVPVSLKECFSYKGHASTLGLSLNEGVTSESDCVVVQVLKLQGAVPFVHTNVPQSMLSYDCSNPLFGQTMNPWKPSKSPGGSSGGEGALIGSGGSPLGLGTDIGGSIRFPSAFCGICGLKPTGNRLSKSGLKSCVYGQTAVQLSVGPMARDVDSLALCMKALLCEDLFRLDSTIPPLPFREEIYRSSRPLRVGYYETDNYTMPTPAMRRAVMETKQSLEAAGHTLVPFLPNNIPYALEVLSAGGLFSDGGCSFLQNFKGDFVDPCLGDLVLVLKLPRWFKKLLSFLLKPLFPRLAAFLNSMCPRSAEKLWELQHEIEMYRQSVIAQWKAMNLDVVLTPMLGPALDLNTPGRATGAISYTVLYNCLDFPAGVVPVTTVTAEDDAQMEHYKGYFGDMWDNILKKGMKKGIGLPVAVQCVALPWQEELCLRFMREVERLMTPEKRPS
# Procedure, shortened: as §1
Structure (SMILES),inhibition at 1 µM (MAGL) [%],inhibition at 1 µM (FAAH) [%],IC50 (MAGL) [µM],IC50 (FAAH) [µM]
"CN(Cc1ccccc1C(F)(F)F)[C@@H]1C[C@@H]2CN(C(=O)n3cc(C(=O)N4CCCC4)cn3)C[C@@H]2C1 [Example 92, (cis-5-(methyl(2-(trifluoromethyl)benzyl)amino)hexahydrocyclopenta[c]pyrrol-2(1H)-yl)(4-(pyrrolidine-1-carbonyl)-1H-pyrazol-1-yl)methanone]",≥ 75,≥ 75,,
"CN(Cc1ccccc1C(F)(F)F)[C@@H]1C[C@@H]2CN(C(=O)n3cc(C(=O)N4CCOCC4)cn3)C[C@@H]2C1 [Example 93, (cis-5-(methyl(2-(trifluoromethyl)benzyl)amino)hexahydrocyclopenta[c]pyrrol-2(1H)-yl)(4-(morpholine-4-carbonyl)-1H-pyrazol-1-yl)methanone]",50 to 75,≥ 75,,
"CN(Cc1ccccc1C(F)(F)F)[C@@H]1C[C@@H]2CN(C(=O)n3cc(C(=O)N4CCN(C5CC5)CC4)cn3)C[C@@H]2C1 [Example 94, (4-cyclopropylpiperazin-1-yl)(1-(cis-5-(methyl(2-(trifluoromethyl)benzyl)amino)octahydrocyclopenta[c]pyrrole-2-carbonyl)-1H-pyrazol-4-yl)methanone]",≥ 75,0 to 25,,
"CN(Cc1ccccc1Cl)[C@H]1C[C@@H]2CN(C(=O)n3cc(C(=O)N4CCN(C5CC5)CC4)cn3)C[C@@H]2C1 [Example 95, (trans-5-((2-chlorobenzyl)(methyl)amino)hexahydrocyclopenta[c]pyrrol-2(1H)-yl)(4-(4-cyclopropylpiperazine-1-carbonyl)-1H-pyrazol-1-yl)methanone]",≥ 75,0 to 25,,
"CN(Cc1ccc(C(F)(F)F)cc1)[C@@H]1C[C@@H]2CN(C(=O)n3cc(C(=O)N4CCCC4)cn3)C[C@@H]2C1 [Example 97, (cis-5-(methyl(4-(trifluoromethyl)benzyl)amino)hexahydrocyclopenta[c]pyrrol-2(1H)-yl)(4-(pyrrolidine-1-carbonyl)-1H-pyrazol-1-yl)methanone]",50 to 75,≥ 75,,
"CN(Cc1ccc(C(F)(F)F)cc1)[C@@H]1C[C@@H]2CN(C(=O)n3cc(C(=O)N4CCN(C5CC5)CC4)cn3)C[C@@H]2C1 [Example 98, (4-cyclopropylpiperazin-1-yl)(1-(cis-5-(methyl(4-(trifluoromethyl)benzyl)amino)octahydrocyclopenta[c]pyrrole-2-carbonyl)-1H-pyrazol-4-yl)methanone]",≥ 75,25 to 50,,
"O=C(N1CC2CN(Cc3ccc(Cl)cc3N3CCOCC3)CC2C1)n1cc(Cl)cn1 (centres unmarked) [Example 99, (4-chloro-1H-pyrazol-1-yl)(5-(4-chloro-2-morpholinobenzyl)hexahydropyrrolo[3,4-c]pyrrol-2(1H)-yl)methanone]",≥ 75,≥ 75,≤ 0.1,≤ 0.1
"O=C(N1CC2CN(Cc3ccc(F)cc3N3CCOCC3)CC2C1)n1cc(Cl)cn1 (centres unmarked) [Example 100, (4-chloro-1H-pyrazol-1-yl)(5-(4-fluoro-2-morpholinobenzyl)hexahydropyrrolo[3,4-c]pyrrol-2(1H)-yl)methanone]",≥ 75,≥ 75,≤ 0.1,0.1 to 1
"O=C(N1CC2CN(Cc3ccc(Cl)cc3N3CCCC3)CC2C1)n1cc(Cl)cn1 (centres unmarked) [Example 101, (4-chloro-1H-pyrazol-1-yl)(5-(4-chloro-2-(pyrrolidin-1-yl)benzyl)hexahydropyrrolo[3,4-c]pyrrol-2(1H)-yl)methanone]",≥ 75,≥ 75,≤ 0.1,0.1 to 1
"CC(=O)N1CCN(c2cc(Cl)ccc2CN2CC3CN(C(=O)n4cc(Cl)cn4)CC3C2)CC1 (centres unmarked) [Example 102, 1-(4-(5-chloro-2-((5-(4-chloro-1H-pyrazole-1-carbonyl)hexahydropyrrolo[3,4-c]pyrrol-2(1H)-yl)methyl)phenyl)piperazin-1-yl)ethan-1-one]",≥ 75,≥ 75,,
"O=C(N1CC2CN(Cc3ccc(F)cc3N3CCCC3)CC2C1)n1cc(Cl)cn1 (centres unmarked) [Example 103, (4-chloro-1H-pyrazol-1-yl)(5-(4-fluoro-2-(pyrrolidin-1-yl)benzyl)hexahydropyrrolo[3,4-c]pyrrol-2(1H)-yl)methanone]",≥ 75,≥ 75,≤ 0.1,≤ 0.1
"CC1COCCN1c1cc(F)ccc1CN1CC2CN(C(=O)n3cc(Cl)cn3)CC2C1 (centres unmarked) [Example 104, (4-chloro-1H-pyrazol-1-yl)(5-(4-fluoro-2-(3-methylmorpholino)benzyl)hexahydropyrrolo[3,4-c]pyrrol-2(1H)-yl)methanone]",≥ 75,≥ 75,,
"CC1COCCN1c1cc(Cl)ccc1CN1CC2CN(C(=O)n3cc(Cl)cn3)CC2C1 (centres unmarked) [Example 105, (4-chloro-1H-pyrazol-1-yl)(5-(4-chloro-2-(3-methylmorpholino)benzyl)hexahydropyrrolo[3,4-c]pyrrol-2(1H)-yl)methanone]",≥ 75,≥ 75,,
"CC(C)c1ccc(CN2CC3CN(C(=O)n4cc(Cl)cn4)CC3C2)c(N2CCOCC2)c1 (centres unmarked) [Example 106, (4-chloro-1H-pyrazol-1-yl)(5-(4-isopropyl-2-morpholinobenzyl)hexahydropyrrolo[3,4-c]pyrrol-2(1H)-yl)methanone]",≥ 75,50 to 75,≤ 0.1,1 to 10
"CC(=O)N1CCN(c2cc(F)ccc2CN2CC3CN(C(=O)n4cc(Cl)cn4)CC3C2)CC1 (centres unmarked) [Example 107, 1-(4-(2-((5-(4-chloro-1H-pyrazole-1-carbonyl)hexahydropyrrolo[3,4-c]pyrrol-2(1H)-yl)methyl)-5-fluorophenyl)piperazin-1-yl)ethan-1-one]",≥ 75,≥ 75,≤ 0.1,0.1 to 1
"CC(C)c1ccc(CN2CC3CN(C(=O)n4cc(Cl)cn4)CC3C2)c(N2CCCC2)c1 (centres unmarked) [Example 108, (4-chloro-1H-pyrazol-1-yl)(5-(4-isopropyl-2-(pyrrolidin-1-yl)benzyl)hexahydropyrrolo[3,4-c]pyrrol-2(1H)-yl)methanone]",≥ 75,50 to 75,0.1 to 1,1 to 10
"CC(=O)N1CCN(c2cc(C(C)C)ccc2CN2CC3CN(C(=O)n4cc(Cl)cn4)CC3C2)CC1 (centres unmarked) [Example 109, 1-(4-(2-((5-(4-chloro-1H-pyrazole-1-carbonyl)hexahydropyrrolo[3,4-c]pyrrol-2(1H)-yl)methyl)-5-isopropylphenyl)piperazin-1-yl)ethan-1-one]",≥ 75,0 to 25,≤ 0.1,1 to 10
"O=C(N1CC2CN(Cc3ccc(C(F)(F)F)cc3N3CCCC3)CC2C1)n1cc(Cl)cn1 (centres unmarked) [Example 110, (4-chloro-1H-pyrazol-1-yl)(5-(2-(pyrrolidin-1-yl)-4-(trifluoromethyl)benzyl)hexahydropyrrolo[3,4-c]pyrrol-2(1H)-yl)methanone]",≥ 75,≥ 75,≤ 0.1,0.1 to 1
"O=C(N1CC2CN(Cc3ccc(Cl)cc3N3CCC4(CCOCC4)C3)CC2C1)n1cc(Cl)cn1 (centres unmarked) [Example 111, (4-chloro-1H-pyrazol-1-yl)(5-(4-chloro-2-(8-oxa-2-azaspiro[4.5]decan-2-yl)benzyl)hexahydropyrrolo[3,4-c]pyrrol-2(1H)-yl)methanone]",≥ 75,≥ 75,≤ 0.1,1 to 10
"O=C(N1CCC2(CCN(Cc3cccc(Cl)c3)C2)C1)n1cc(Cl)cn1 (centres unmarked) [Example 113, (4-chloro-1H-pyrazol-1-yl)(7-(3-chlorobenzyl)-2,7-diazaspiro[4.4]nonan-2-yl)methanone]",≥ 75,≥ 75,0.1 to 1,≤ 0.1
"O=C(N1CCC2(CCN(Cc3ccccc3)C2)C1)n1cc(Cl)cn1 (centres unmarked) [Example 114, (7-benzyl-2,7-diazaspiro[4.4]nonan-2-yl)(4-chloro-1H-pyrazol-1-yl)methanone]",50 to 75,≥ 75,,
"O=C(N1CCC2(CCN(Cc3ccc(Cl)cc3)C2)C1)n1cc(Cl)cn1 (centres unmarked) [Example 115, (4-chloro-1H-pyrazol-1-yl)(7-(4-chlorobenzyl)-2,7-daizaspiro[4.4]nonan-2-yl)methanone]",≥ 75,≥ 75,0.1 to 1,0.1 to 1

# — patent US10385057B2, “Pyrazole compounds and methods of making and using same” (Lundbeck La Jolla Research Center, Inc., priority 2015, dated 2019)
